Columns and labels:
HepG2 = experiment: Cytotoxicity against human HepG2 cells; assay type: functional, cell-based
HeLa = experiment: Cytotoxicity against human HeLa cells; assay type: functional, cell-based
BGC-823 = experiment: Cytotoxicity against human BGC823 cells; assay type: cell-based

Row | Compound | IC50 (HepG2) [nM] | IC50 (HeLa) [nM] | IC50 (BGC-823) [nM]
1 | CC(=O)O[C@H]1CC[C@@]2(C)[C@H](CC[C@@H]3[C@@H]2CC[C@]2(C)[C@@H](c4ccc(=O)oc4)CC[C@]32O)C1 | 740 | 1140 | 700
2 | CC(=O)O[C@H]1CC[C@@]2(C)[C@H](CC[C@@H]3[C@@H]2CC[C@]2(C)[C@@H](c4ccc(=O)oc4)[C@@H](OC(C)=O)[C@@H](O)[C@]32O)C1 | 3100 | 450 | 3370
3 | CC(=O)O[C@H]1CC[C@@]2(C)[C@H](CC[C@@H]3[C@@H]2CC[C@]2(C)[C@@H](c4ccc(=O)oc4)[C@@H](OC(C)=O)[C@H]4O[C@]342)C1 | 6440 | 1090 | 4110
4 | CC(=O)O[C@H]1CC[C@@]2(C)[C@H](CC[C@@H]3[C@@H]2CC[C@]2(C)[C@@H](c4ccc(=O)oc4)C[C@H]4O[C@]342)C1 | > 50000 | > 50000 | 19800
5 | C[C@]12CC[C@H](O)C[C@H]1CC[C@@H]1[C@@H]2CC[C@]2(C)[C@@H](c3ccc(=O)oc3)CC[C@]12O [BUFALIN] | 640 | 730 | 990
6 | C[C@]12CC[C@H](O)C[C@H]1CC[C@@H]1[C@@H]2CC[C@]2(C)[C@@H](c3ccc(=O)oc3)C[C@H]3O[C@]132 [BUFOGENIN] | > 50000 | > 50000 | 7890
7 | CC(=O)O[C@H]1[C@H]2O[C@]23[C@@H]2CC[C@@H]4C[C@@H](O)CC[C@]4(C)[C@H]2CC[C@]3(C)[C@H]1c1ccc(=O)oc1 [CINOBUFAGIN] | 5200 | 760 | 8500
8 | CC(=O)O[C@H]1C(=O)[C@@]2(C)[C@H]([C@H](OC(=O)c3ccccc3)[C@]3(O)C[C@H](OC(=O)[C@H](O)[C@@H](NC(=O)c4ccccc4)c4ccccc4)C(C)=C1C3(C)C)[C@]1(OC(C)=O)CO[C@@H]1C[C@@H]2O [PACLITAXEL] | 820 | 20 | 1150

Reference: ChEMBL document CHEMBL1140544, “Microbial transformation of three bufadienolides by Nocardia sp. and some insight for the cytotoxic structure-activity relationship (SAR)” (Bioorg Med Chem Lett, 2007)
